This is an account of results in paper PMC11503492, “Activity-Based DNA-Encoded Library Screening for Selective Inhibitors of Eukaryotic Translation” (ACS Central Science, 2024).

Test [1] relates to PCSK9[1:33]-GFP translation. The experiment in a line: Wheat germ lysate (WG) IVTT microplate activity assay, PCSK9[1:33]-GFP template. Type of test: biochemical. Conditions: WG IVTT; for IC50: PCSK9[1:33]-GFP template, triplicate, ± standard deviation of the mean. The text has this: (§1) A commercially available wheat germ lysate (WG) IVTT system was employed to assay translation inhibition. Translation activity was detected via a GFP reporter, and the assay was miniaturized to picoliter-scale microfluidic droplets (Figure 1A,B). […] PCSK9 and RPL27 were truncated to the first 33 and 32 amino acids, respectively (PCSK9[1:33] and RPL27[1:32]). The sequences contain distinct PF846 stall sites and were both fused to a GFP reporter. The GFP reporter and a frameshift mutant of PCSK9[1:33] (PCSK9-FS[1:33]), which mutates the nascent chain sequence while maintaining a nearly identical mRNA sequence, were included as negative controls.[13] […] Sequence sensitivity was further confirmed by an N-terminal deletion series of PCSK9[1:33]-GFP; deletion of N-terminal residues increasingly ablated PCSK9[1:33]-GFP translation sensitivity to PF846 (Figure 1D). The WG IVTT assay was miniaturized using a previously described microfluidic circuit modified for longer incubation times (Figure S1)[27] using PF846 as a positive control compound, and assay statistical quality was calculated (Z′=0.7) (Figure 1E). To confirm detection of translation inhibition from library beads, hygromycin B, a nonselective aminoglycoside translation inhibitor, was coupled to beads displaying a photocleavable linker (PC-HygB). UV irradiation releases hygromycin from the bead, allowing it to interact with the WG IVTT assay in the droplet. PC-HygB bead photocleavage supernatant inhibited PCSK9[1:33]-GFP translation both in a microplate assay and in microfluidic droplets (Figure 1F,G, S2). Assay statistical quality using PC-HygB positive control beads was similarly calculated (Z′ = 0.75, Figure 1H). […]
(§2) 436 Microplate IVTT Assays
(§3) 437 Wheat germ lysate IVTT plate assays were prepared as 5 µL reactions. Wheat germ lysate
(§4) 438 (3 µL) was added to test compound or vehicle control (1 µL) in a 384-well black microplate
(§5) 439 and the reaction was incubated (10 min, RT). Template (1 µL) was added and reaction
(§6) 440 progress was immediately monitored (λex = 480 nm, λem = 530 nm, 27 °C, 2 h). Rela-
(§7) 441 tive activity was calculated using the slope of fluorescence increase over time (at 15–30
(§8) 442 min post reaction initiation) for compound samples relative to that of the DMSO vehicle
443 control. […]

For test [2], the system named is PCSK9[1:33]-GFP translation. The experiment in a line: Microfluidic activity-based DEL screen in WG IVTT droplets, PCSK9[1:33]-GFP, hit k class by sequencing. Type of test: biochemical, wheat germ. To be noted: number of times hit structure observed on distinct beads, summed across PCSK9[1:33]-GFP screens; *** p < 0.001, NS not significant. The procedure:
(§9) The validated PF846-inspired library was screened to discover novel translation inhibitors. DEL beads were encapsulated in microfluidic droplets of WG IVTT and irradiated with UV in flow to liberate DEL members into the droplets. The photodosed droplets were incubated and sorted based on fluorescence.[25] PCSK9[1:33]-GFP was chosen as a proof-of-concept target, and PCSK9-FS[1:33]-GFP was used as a counter screen target to identify nonselective compounds. PC-HygB were mixed with DEL beads and screened in the microfluidic device for inhibitors of translation. […] Droplet generation, bead introduction, and library and control bead hit rate were uniform during the screen (Figure 3, bottom).
(§10) Hit collection DNA tags from the PCSK9[1:33]-GFP and PCSK9-FS[1:33]-GFP screens were sequenced to deduce the structures of molecules that inhibited PCSK9[1:33]- or PCSK9-FS[1:33]-GFP translation. Hit structure k class, the number of times a given hit structure is observed on distinct beads,[31] was summed across screens and visualized as a heat map (Figure 4A). […] The combined hit sets for the two templates contained 121 unique hits with k ≥ 17 across the two screening campaigns. The most frequently observed cycle 1 starter BBs were 1 and 2, which share an 8-methylisoquinoline moiety, but differ in the vector for cycle 2 carboxylic acid connection, and 3, which contains an N-methylazaindole moiety. The most frequently identified cycle 2 tails included carboxylic acids 4–7. […] Substituted pyrazole 6 and pyridyl-benzimidazole 7 also appeared frequently with the aforementioned starters. There were 5 hits that appeared with high k class in both PCSK9[1:33]-GFP and PCSK9[1:33]-FS-GFP screening campaigns.
(§11) 319 the droplet experiment to homogenize the bead suspension. Syringes were connected to
(§12) 320 fluidic inputs with microbore Tygon tubing (0.01” x 0.03” IC × OD). Droplet generation oil
(§13) 321 (OIL1) was 1% picosurf in HFE. Spacing (OIL2) and pinning (OIL3) oils were neat HFE.
(§14) 322 Assay reagents were driven by displacement syringe pumps (Legato 100, KD Scientific,
(§15) 323 Holliston, MA) through the circuit. OIL2 and OIL3 were initially flowed (22 µL/min and
(§16) 324 12 µL/min, respectively) and hit and waste shunt tubing were clamped to backfill the
(§17) 325 circuit. Once the incubator was filled with oil, the hit and waste tubing were unclamped
(§18) 326 and back shunts were clamped. AQ1, AQ2, and OIL1 flows were initiated (960 nL/min,
(§19) 327 640 nL/min, and 1200 nL/min, respectively) and held constant during the screen. Once
(§20) 328 droplet generation equilibrated (∼10 min), the main shunt was clamped and droplets
(§21) 329 started to fill the incubator. When droplets filled the incubator and entered the sorting
(§22) 330 region, data acquisition and screening was initiated.
(§23) 331 The custom confocal LIF detection setup and LabView code were previously described.S3
(§24) 332 Briefly, photon counting PMTs (H7828, Hamamatsu, Middlesex, NJ) were used to detect
(§25) 333 droplet fluorescence emission using a custom two-channel (520 and 570 nm) confocal mi-
(§26) 334 croscope with laser excitation (488 nm, 20 mW, OBIS-488 20LS, Coherent Inc., Santa Clara,
(§27) 335 CA). A data acquisition board (DAQ, NI, USB-6341, National Instruments) was used to
(§28) 336 digitize PMT signal, which was binned into counts, and in-house LabView code was used
(§29) 337 to control acquisition and execute droplet sorting decisions. Signal was smoothed in real-
(§30) 338 time using median-filter smoothing (width = 3). Droplets were identified by the 570 nm
(§31) 339 channel signal and the maximum signal in the 520 nm channel (max = countsn-1 when
(§32) 340 countsn <countsn-1) was set as the droplet peak value. A roaming sort threshold was
(§33) 342 the 520 nm channel. The threshold was calculated as µ - 5σ, where µ andσ were the mean
(§34) 343 and standard deviation of the previous 300 droplets’ fluorescence values, respectively. Hit
(§35) 344 droplets were not included in the calculation of droplet mean and standard deviation. A […]

The subject of test [3] is PCSK9-FS[1:33]-GFP translation. The experiment in a line: Microfluidic activity-based DEL counter screen in WG IVTT droplets, PCSK9-FS[1:33]-GFP, hit k class by sequencing. The class given is biochemical, wheat germ. To be noted: number of times hit structure observed on distinct beads, summed across PCSK9-FS[1:33]-GFP screens; *** p < 0.001, NS not significant. The procedure: as §9, §10, §11, §12, §13, §14, §15, §16, §17, §18, §19, §20, §21, §22, §23, §24, §25, §26, §27, §28, §29, §30, §31, §32, §33, §34, §35
On the technique in general: The purpose of a counterscreen is to sort out artefacts and off-target activity.

Test [4] has as its system PCSK9-FS[1:33]-GFP translation. Description: WG IVTT microplate activity assay, PCSK9-FS[1:33]-GFP frameshift counter template. Type of test: biochemical, wheat germ. Conditions: for IC50: PCSK9-FS[1:33]-GFP template, triplicate, undetectable IC50 marked >300; for activity on PCSK9-FS[1:33]-GFP translation (in words): frameshift control.
Source text: as §1, §2, §3, §4, §5, §6, §7, §8
443 control. All microplate experiments contained 25 ng/µL plasmid, except for assays with
445 respectively. HeLa lysate IVTT plate assays were prepared as 5.5 µL reactions. […]

Bounds are passed on as bounds.

For the compound `Cc1cccc2ccnc(N(C(=O)C3CCN(C(=O)c4ccc5nc(-c6ccncc6)[nH]c5c4)CC3)[C@@H]3CCCNC3)c12` [Compound 14], in test [1], the “inhibition of PCSK9[1:33]-GFP translation (in words)” value (“inhibition” for short) was “similarly active on both templates” and the IC50 (as a rule, the midpoint of a concentration-inhibition curve) came to 11.4 ± 0.4 µM. In test [2], the “k class PCSK9” value came out at 53. Moreover, the “k class PCSK9-FS” value in test [3] worked out at 17. In addition, in test [4], the IC50 was 7.7 ± 0.1 µM and the “activity on PCSK9-FS[1:33]-GFP translation (in words)” value (“activity” for short) is reported as “similarly active on both templates”.
For `Cc1cccc2ccnc(N(C(=O)[C@H]3CCCN(C(=O)c4ccc(-c5cnco5)cc4)C3)[C@@H]3CCCNC3)c12` [Compound 10, (S)-N-(8-methylisoquinolin-1-yl)-1-(4-(oxazol-5-yl)benzoyl)-N-((R)-piperidin-3-yl)piperidine-3-carboxamide], in test [1], the “inhibition” value is listed as “modestly inhibited” and the IC50 amounted to 6 ± 0.2 µM. The “k class PCSK9” value in test [2] came out at 34. In addition, the “k class PCSK9-FS” value in test [3] is given as 3. For the same compound, in test [4], the IC50 is greater than 300 µM and the “activity” value is recorded as “minimal activity”.
With `Cc1c(C(=O)N2CCC(C(=O)N(c3nccc4cccc(C)c34)[C@@H]3CCCNC3)CC2)[nH]c2c1C(=O)CCC2` [Compound 11], in test [1], the “inhibition” value is “similarly active on both templates” and 19.1 ± 0.5 µM corresponded to half-maximal inhibition (IC50). Further, the “k class PCSK9” value in test [2] is 38. Besides, the “k class PCSK9-FS” value in test [3] is recorded as 10. For the same compound, in test [4], the IC50 stood at 31 ± 1 µM and the “activity” value is recorded as “similarly active on both templates”.
`Cc1cccc2ccnc(N(C(=O)C3CCN(C(=O)C#CC4(O)CCOCC4)CC3)[C@@H]3CCCNC3)c12` [Compound 12]: in test [1], the “inhibition” value is “similarly active on both templates” and the IC50 was found to be 44 ± 4 µM. In test [2], the “k class PCSK9” value turned out to be 31. Also, the “k class PCSK9-FS” value in test [3] was determined as 3. For the same compound, in test [4], the IC50 is 27 ± 2 µM and the “activity” value is recorded as “similarly active on both templates”.
As for `Cc1cccc2ccnc(N(C(=O)[C@H]3CCCN(C(=O)c4ccc(N5CCCC5)nc4)C3)[C@@H]3CCCNC3)c12` [Compound 13], in test [1], the “inhibition” value is “modestly inhibited” and the IC50 was determined as 11.2 ± 0.5 µM. Also, in test [2], the “k class PCSK9” value was found to be 39. For the same compound, the “k class PCSK9-FS” value in test [3] was determined as 4. In test [4], the IC50 is greater than 300 µM and the “activity” value was “minimal activity”.
